Patent US9737502B2, “Calebin A for hepatic steatosis” (SAMI LABS LIMITED, priority 2011, dated 2017)
Marks after values point to notes of the source that are not given here.

Experiments:
IL-1 beta = test: Serum IL-1 beta in LPS-injected mice after 6 days oral treatment (ELISA); assay type: in vivo, Swiss albino mice; settings: graded doses, then LPS 1 mg/kg i.v., serum 90 min after LPS
Experimental: The present inventors also adduce study data on the ability of Calebin A to reduce expression of Extracellular TNF-α, IL-1 beta [FIG. 6] and IL-6 [FIG. 7] in serum from treated mice (in-vivo models). Swiss albino male mice aged 6-8 weeks were maintained at 22±2° C. under 12/12 h light dark cycle. Mice received oral treatment of test drugs at graded doses (w/v) for 6 days, followed by intravenous injection of 1 mg/kg of LPS according to the method described by Brieva A, Guerrero A, Alonso-Lebrero J L and Pivel J P. 2001. Immunoferon, a glycoconjugate of natural origin, inhibits LPS-induced TNF-α production and inflammatory responses. International Immunopharmacology 1, 1979-1987. Six mice were employed in each group and experiments were performed in triplicates. TNF-α, IL-1 beta and IL-6 production was evaluated by a commercial ELISA kits (R&D Systems) in serum from treated mice, 90 min after LPS injection. Rolipram at 30 mg/kg was used as standard drug.

[1] = Study 2: body weight and liver weight in high fat diet induced obese mice; assay type: in vivo, C57 mice; settings: for LIVER WEIGHT: male group, Day 57, High fat diet Control 1.60 ± 0.35
Source text: The animals were fed ad libitum with AMRUT Laboratory Animal Feed manufactured by Pranav Agro Industries Limited, Sangli, Maharastra throughout the acclimatization. Open Source Diet D12450B diet (with 10 kcal % Fat) and Open Source Diet D12492 High fat diet (with 60 kcal % Fat) manufactured by Research Diet Inc, USA procured from Indus Marketing, Hyderabad, Andhra Pradesh, INDIA was used for induction of obesity and the main study.
The animals were divided into 5 groups viz., Group 1, 2, 3, 4 and 5 consisting of 10 animals (5 male and 5 female) each.
The G1 Control group animals were fed with normal control diet feed D12450B containing 10 kcal % fat and the G2 to G5 group animals were fed with high fat diet feed D12492 containing 60 kcal % fat during the induction of obesity and during main study.
The main study was started after the induction of obesity. The 3 doses of Calebin A was administered to animals from Day 29 daily consecutively for a period of 28 days. The feeding of diets continued in the main study in a similar way as performed in induction of obesity. The G1 Control and G2 High fat diet control group animals were administered with 0.5% CMC (Carboxy Methyl Cellulose) while other group animals received test item from Day 29 to Day 56 of the study period. The dose volume of administration was maintained according to the weekly body weight of individual animals. The total duration of the study was 61 days (5 days Acclimatization period+28 days Induction of obesity+28 days Main study).
Individual animal body weights were recorded on the day of receipt on Day 1 and weekly (±1 day) thereafter during the study period.
Further, after completion of the study period (Day 57) the animals were humanely sacrificed by exposure to excess CO2 in gas chamber and organ weights were noted. The brain, thymus, liver, adrenals, kidneys (paired), spleen, heart and ovaries/testes (paired) from all animals were trimmed off any adherent tissue, as appropriate and weighed wet as soon as possible to avoid drying. While in general, there was no statistically significant difference in organ weights in males and females, organ specific improvements in weight, example for liver in the male group was observable (See TABLE X). […] It may be noted that Behnke, A. R. 1953. Lean body mass. A.M.A. Arch. Int. Med. 91, 585 indicates liver as an index of lean body mass promotion and H. F. Kraybill et al, J ANIM SCI 1954, 13:548-555 indicate that other visceral organs may also be equally predictive of lean body mass promotion. It is quite possible that statistical significance in terms of sustainable increase in organ weights without indications of toxicity may be achieved with a larger sample size (more number of tested animals) over extended testing periods.

[2] = Serum biochemistry (TCHO, TG, HDL, GOT, GPT) in HFD-fed mice, 12 weeks; assay type: in vivo, C57BL/6J mice; settings: for GPT: HFD 38.25 ± 8.92; for HDL: HFD 109.40 ± 1.34; for TG: HFD 151.00 ± 8.89; for TCHO: HFD 162.67 ± 15.89; for GOT: HFD 335.28 ± 18.80
Experimental: Food cups were replenished with fresh diet daily. […] Statistical analysis was done by Student's t test.
C57BL/6J mice fed with HFD for period of 12 weeks were evaluated for serum levels of GOT and GTP. Results indicated enhanced serum GOT and GTP (TABLE XI) when compared to the ND group.
Data were presented as the mean±SE (n=8 per group). […] ND: normal diet; HFD: high fat diet.

COc1cc(/C=C/C(=O)COC(=O)/C=C/c2ccc(O)c(OC)c2)ccc1O [Calebin A]
expression of IL-1 beta in serum (IL-1 beta): effective in reducing | BODY WEIGHT ([1]; females, G3 5 mg/kg + High fat diet, Day 1 (obesity induction, before dosing)): 22.36 ± 0.65 grams | BODY WEIGHT ([1]; females, G3 5 mg/kg + High fat diet, Day 8 (obesity induction, before dosing)): 23.18 ± 0.79 grams | BODY WEIGHT ([1]; females, G3 5 mg/kg + High fat diet, Day 15 (obesity induction, before dosing)): 24.36 ± 0.87 grams | BODY WEIGHT ([1]; females, G3 5 mg/kg + High fat diet, Day 22 (obesity induction, before dosing)): 25.66 ± 0.48 grams | BODY WEIGHT ([1]; females, G3 5 mg/kg + High fat diet, Day 29 (start of daily dosing)): 27.40*^a ± grams | BODY WEIGHT ([1]; females, G3 5 mg/kg + High fat diet, Day 36 (dosing Day 29-56)): 28.18**^a ± grams | BODY WEIGHT ([1]; females, G3 5 mg/kg + High fat diet, Day 43 (dosing Day 29-56)): 28.46*^a,**^b ± grams | BODY WEIGHT ([1]; females, G3 5 mg/kg + High fat diet, Day 50 (dosing Day 29-56)): 28.20***^b ± grams | BODY WEIGHT ([1]; females, G3 5 mg/kg + High fat diet, Day 56 (dosing Day 29-56)): 28.12***^b ± grams | BODY WEIGHT ([1]; females, G4 10 mg/kg + High fat diet, Day 1 (obesity induction, before dosing)): 23.16 ± 0.99 grams | BODY WEIGHT ([1]; females, G4 10 mg/kg + High fat diet, Day 8 (obesity induction, before dosing)): 24.16 ± 1.29 grams | BODY WEIGHT ([1]; females, G4 10 mg/kg + High fat diet, Day 15 (obesity induction, before dosing)): 25.62 ± 1.26 grams | BODY WEIGHT ([1]; females, G4 10 mg/kg + High fat diet, Day 22 (obesity induction, before dosing)): 26.76 ± 1.27 grams | BODY WEIGHT ([1]; females, G4 10 mg/kg + High fat diet, Day 29 (start of daily dosing)): 28.46***^a ± grams | BODY WEIGHT ([1]; females, G4 10 mg/kg + High fat diet, Day 36 (dosing Day 29-56)): 28.64***^a ± grams | BODY WEIGHT ([1]; females, G4 10 mg/kg + High fat diet, Day 43 (dosing Day 29-56)): 28.16*^a,***^b ± grams | BODY WEIGHT ([1]; females, G4 10 mg/kg + High fat diet, Day 50 (dosing Day 29-56)): 27.54***^b ± grams | BODY WEIGHT ([1]; females, G4 10 mg/kg + High fat diet, Day 56 (dosing Day 29-56)): 27.04***^b ± grams | BODY WEIGHT ([1]; females, G5 20 mg/kg + High fat diet, Day 1 (obesity induction, before dosing)): 23.52 ± 1.10 grams | BODY WEIGHT ([1]; females, G5 20 mg/kg + High fat diet, Day 8 (obesity induction, before dosing)): 24.66 ± 1.24 grams | BODY WEIGHT ([1]; females, G5 20 mg/kg + High fat diet, Day 15 (obesity induction, before dosing)): 26.26 ^a ± 1.05 ^ grams | BODY WEIGHT ([1]; females, G5 20 mg/kg + High fat diet, Day 22 (obesity induction, before dosing)): 27.26 ^a ± 1.25 ^ grams | BODY WEIGHT ([1]; females, G5 20 mg/kg + High fat diet, Day 29 (start of daily dosing)): 28.74***^a ± grams | BODY WEIGHT ([1]; females, G5 20 mg/kg + High fat diet, Day 36 (dosing Day 29-56)): 28.40**^a ± grams | BODY WEIGHT ([1]; females, G5 20 mg/kg + High fat diet, Day 43 (dosing Day 29-56)): 27.80***^b ± grams | BODY WEIGHT ([1]; females, G5 20 mg/kg + High fat diet, Day 50 (dosing Day 29-56)): 27.44***^b ± grams | BODY WEIGHT ([1]; females, G5 20 mg/kg + High fat diet, Day 56 (dosing Day 29-56)): 27.10***^b ± grams | effect on body weights of high fat diet induced obese animals ([1]; male and female C57 animals, 5, 10 and 20 mg/kg body weight): had an effect in decreasing the body weights | LIVER WEIGHT ([1]; G3 5 mg/kg + High fat diet): 1.41 ± 0.17 g | LIVER WEIGHT ([1]; G4 10 mg/kg + High fat diet): 1.25 ± 0.17 g | LIVER WEIGHT ([1]; G5 20 mg/kg + High fat diet): 1.79 ± 0.19 g | BODY WEIGHT ([1]; males, G3 5 mg/kg + High fat diet, Day 1 (obesity induction, before dosing)): 25.02 ± 1.45 grams | BODY WEIGHT ([1]; males, G3 5 mg/kg + High fat diet, Day 8 (obesity induction, before dosing)): 25.78 ± 1.14 grams | BODY WEIGHT ([1]; males, G3 5 mg/kg + High fat diet, Day 15 (obesity induction, before dosing)): 27.68 ± 0.95 grams | BODY WEIGHT ([1]; males, G3 5 mg/kg + High fat diet, Day 22 (obesity induction, before dosing)): 29.98**^a ± 1.03 grams | BODY WEIGHT ([1]; males, G3 5 mg/kg + High fat diet, Day 29 (start of daily dosing)): 30.92**^a ± grams | BODY WEIGHT ([1]; males, G3 5 mg/kg + High fat diet, Day 36 (dosing Day 29-56)): 31.70*^a ± grams | BODY WEIGHT ([1]; males, G3 5 mg/kg + High fat diet, Day 43 (dosing Day 29-56)): 30.84***^b ± grams | BODY WEIGHT ([1]; males, G3 5 mg/kg + High fat diet, Day 50 (dosing Day 29-56)): 30.04***^b ± grams | BODY WEIGHT ([1]; males, G3 5 mg/kg + High fat diet, Day 56 (dosing Day 29-56)): 29.98***^b ± grams | BODY WEIGHT ([1]; males, G4 10 mg/kg + High fat diet, Day 1 (obesity induction, before dosing)): 25.28 ± 0.88 grams | BODY WEIGHT ([1]; males, G4 10 mg/kg + High fat diet, Day 8 (obesity induction, before dosing)): 25.82 ± 0.91 grams | BODY WEIGHT ([1]; males, G4 10 mg/kg + High fat diet, Day 15 (obesity induction, before dosing)): 27.58 ± 0.65 grams | BODY WEIGHT ([1]; males, G4 10 mg/kg + High fat diet, Day 22 (obesity induction, before dosing)): 29.92**^a ± 0.97 grams | BODY WEIGHT ([1]; males, G4 10 mg/kg + High fat diet, Day 29 (start of daily dosing)): 31.02**^a ± grams | BODY WEIGHT ([1]; males, G4 10 mg/kg + High fat diet, Day 36 (dosing Day 29-56)): 31.06*^b ± grams | BODY WEIGHT ([1]; males, G4 10 mg/kg + High fat diet, Day 43 (dosing Day 29-56)): 29.80***^b ± grams | BODY WEIGHT ([1]; males, G4 10 mg/kg + High fat diet, Day 50 (dosing Day 29-56)): 28.98***^b ± grams | BODY WEIGHT ([1]; males, G4 10 mg/kg + High fat diet, Day 56 (dosing Day 29-56)): 28.62***^b ± grams | BODY WEIGHT ([1]; males, G5 20 mg/kg + High fat diet, Day 1 (obesity induction, before dosing)): 25.88 ± 1.25 grams | BODY WEIGHT ([1]; males, G5 20 mg/kg + High fat diet, Day 8 (obesity induction, before dosing)): 26.66 ± 1.73 grams | BODY WEIGHT ([1]; males, G5 20 mg/kg + High fat diet, Day 15 (obesity induction, before dosing)): 28.94*^a ± 1.59^ grams | BODY WEIGHT ([1]; males, G5 20 mg/kg + High fat diet, Day 22 (obesity induction, before dosing)): 30.64**^a ± 1.16 grams | BODY WEIGHT ([1]; males, G5 20 mg/kg + High fat diet, Day 29 (start of daily dosing)): 31.86***^a ± grams | BODY WEIGHT ([1]; males, G5 20 mg/kg + High fat diet, Day 36 (dosing Day 29-56)): 31.48*^b ± grams | BODY WEIGHT ([1]; males, G5 20 mg/kg + High fat diet, Day 43 (dosing Day 29-56)): 29.12***^b ± grams | BODY WEIGHT ([1]; males, G5 20 mg/kg + High fat diet, Day 50 (dosing Day 29-56)): 27.74***^b ± grams | BODY WEIGHT ([1]; males, G5 20 mg/kg + High fat diet, Day 56 (dosing Day 29-56)): 27.54***^b ± grams | GPT ([2]; HFD + 0.25% Calebin A): 23.00 ± 2.92^c U/l | HDL ([2]; HFD + 0.25% Calebin A): 107.80 ± 2.05^a mg/dl | TG ([2]; HFD + 0.25% Calebin A): 121.25 ± 6.55^b mg/dl | TCHO ([2]; HFD + 0.25% Calebin A): 136.50 ± 7.51^c mg/dl | GOT ([2]; HFD + 0.25% Calebin A): 110.33 ± 2.52^b U/l | GPT ([2]; HFD + 1% Calebin A): 32.50 ± 3.00^a U/l | HDL ([2]; HFD + 1% Calebin A): 104.50 ± 8.80^a mg/dl | TG ([2]; HFD + 1% Calebin A): 89.75 ± 5.85^b mg/dl | TCHO ([2]; HFD + 1% Calebin A): 110.50 ± 17.97^a mg/dl | GOT ([2]; HFD + 1% Calebin A): 77.50 ± 11.12^c U/l
